Measured values as given in patent US20210040118A1, “IMMUNOMODULATORS, COMPOSITIONS AND METHODS THEREOF” (BETTA PHARMACEUTICALS CO., LTD, priority 2018, published 2021).

Molecular target: T1, PD-1/PD-L1 (Homo sapiens, UniProt Q9NZQ7)
T1 construct: Recombinant human PD-L1 protein (19-238) with a His-tag at the C-terminus; purchased AcroBiosystems PD1-H5229 (PD-L1); PD1-H5257 (PD-1)
Assay: PD-1/PD-L1 homogenous time-resolved fluorescence (HTRF) binding assay
Conditions: recombinant human PD-L1 (19-238) His-tag / human PD-1 (25-167) Fc tag, class symbols
Procedure, shortened: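 HTRF binding of human PD-1 (25-167, Fc-tagged) at 3 nM and PD-L1 (19-238, His-tagged) at 10 nM, preincubated 40 min with inhibitor in PBS pH 7.4, 0.05% Tween-20, 0.1% BSA, 1% DMSO, 25°C. Eu anti-IgG (1 nM) and anti-His-APC (20 nM) added, 60 min; 665/620 nm ratio; IC50 from curve fit.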

T1 sequence (Q9NZQ7 19-238): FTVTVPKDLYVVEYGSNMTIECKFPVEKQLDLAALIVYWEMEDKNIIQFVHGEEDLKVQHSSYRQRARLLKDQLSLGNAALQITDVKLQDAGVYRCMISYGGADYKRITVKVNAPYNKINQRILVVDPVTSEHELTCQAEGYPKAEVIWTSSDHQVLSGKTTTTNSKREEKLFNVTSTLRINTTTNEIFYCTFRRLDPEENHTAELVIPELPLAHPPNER

Row | Structure (SMILES) | IC50
1 | O=C(Nc1cccc(-c2cccc3c2CCN3C(=O)c2nc3c(s2)CNCC3)c1Cl)c1ncc(CNCCO)s1 [Example 101, N-(2-chloro-3-(1-(4,5,6,7-tetrahydrothiazolo[5,4-c]pyridine-2-carbonyl)indolin-4-yl)phenyl)-5-(((2-hydroxyethyl)amino)methyl)thiazole-2-carboxamide] | < 0.025 µM
2 | COC(=O)CN1CCc2nc(C(=O)N3CCc4c(-c5cccc6c5CCN6C(=O)c5nc6c(s5)CN(CC(=O)OC)CC6)cccc43)sc2C1 [Example 102, dimethyl 2,2′-(([4,4′-biindoline]-1,1′-dicarbonyl)bis(6,7-dihydrothiazolo[5,4-c]pyridine-2,5(4H)-diyl))diacetate] | < 0.025 µM
3 | NC(=O)CN1CCc2nc(C(=O)N3CCc4c(-c5cccc6c5CCN6C(=O)c5nc6c(s5)CN(CC(N)=O)CC6)cccc43)sc2C1 [Example 104, 2,2′-(([4,4′-biindoline]-1,1′-dicarbonyl)bis(6,7-dihydrothiazolo[5,4-c]pyridine-2,5(4H)-diyl))diacetamide] | < 0.025 µM
4 | CNC(=O)CN1CCc2nc(C(=O)N3CCc4c(-c5cccc6c5CCN6C(=O)c5nc6c(s5)CN(CC(=O)NC)CC6)cccc43)sc2C1 [Example 105, 2,2′-(([4,4′-biindoline]-1,1′-dicarbonyl)bis(6,7-dihydrothiazolo[5,4-c]pyridine-2,5(4H)-diyl))bis(N-methylacetamide)] | < 0.025 µM
5 | CN(C)C(=O)CN1CCc2nc(C(=O)N3CCc4c(-c5cccc6c5CCN6C(=O)c5nc6c(s5)CN(CC(=O)N(C)C)CC6)cccc43)sc2C1 [Example 106, 2,2′-(([4,4′-biindoline]-1,1′-dicarbonyl)bis(6,7-dihydrothiazolo[5,4-c]pyridine-2,5(4H)-diyl))bis(N,N-dimethylacetamide)] | < 0.025 µM
6 | NC(=O)CN1CCc2nc(C(=O)N3CCc4c(-c5cccc6c5CCN6C(=O)c5nc6c(s5)CN(CC(=O)O)CC6)cccc43)sc2C1 [Example 107, 2-(2-(1′-(5-(2-amino-2-oxoethyl)-4,5,6,7-tetrahydrothiazolo[5,4-c]pyridine-2-carbonyl)-[4,4′-biindoline]-1-carbonyl)-6,7-dihydrothiazolo[5,4-c]pyridin-5(4H)-yl)acetic acid] | < 0.025 µM
7 | CNC(=O)CN1CCc2nc(C(=O)N3CCc4c(-c5cccc6c5CCN6C(=O)c5nc6c(s5)CN(CC(=O)O)CC6)cccc43)sc2C1 [Example 108, 2-(2-(1′-(5-(2-(methylamino)-2-oxoethyl)-4,5,6,7-tetrahydrothiazolo[5,4-c]pyridine-2-carbonyl)-[4,4′-biindoline]-1-carbonyl)-6,7-dihydrothiazolo[5,4-c]pyridin-5(4H)-yl)acetic acid] | < 0.025 µM
8 | CN(C)C(=O)CN1CCc2nc(C(=O)N3CCc4c(-c5cccc6c5CCN6C(=O)c5nc6c(s5)CN(CC(=O)O)CC6)cccc43)sc2C1 [Example 109, 2-(2-(1′-(5-(2-(dimethylamino)-2-oxoethyl)-4,5,6,7-tetrahydrothiazolo[5,4-c]pyridine-2-carbonyl)-[4,4′-biindoline]-1-carbonyl)-6,7-dihydrothiazolo[5,4-c]pyridin-5(4H)-yl)acetic acid] | < 0.025 µM
9 | O=C(O)CN1C2CCC1c1sc(C(=O)N3CCc4c(-c5cccc6c5CCN6C(=O)c5nc6c(s5)C5CCC(C6)N5CC(=O)O)cccc43)nc1C2 [Example 110, 2,2′-(([4,4′-biindoline]-1,1′-dicarbonyl)bis(5,6,7,8-tetrahydro-4H-5,8-epiminocyclohepta[d]thiazole-2,9-diyl))diacetic acid] | < 0.025 µM

Same assay, conditions: recombinant human PD-L1 (19-238) His-tag / human PD-1 (25-167) Fc tag, numeric values

Row | Structure (SMILES) | IC50
10 | O=C(O)CN1CCc2nc(C(=O)N3CCc4c(-c5cccc6c5CCN6C(=O)c5nc6c(s5)CN(CC(=O)O)CC6)cccc43)sc2C1 [Example 103, 2,2′-(([4,4′-biindoline]-1,1′-dicarbonyl)bis(6,7-dihydrothiazolo[5,4-c]pyridine-2,5(4H)-diyl))diacetic acid] | 0.00037 µM
